In patent US10287277B2, “Fumagillol derivatives and polymorphs thereof” (SynDevRx, Inc., priority 2015, dated 2019):
Values belong to the compound of their own block, whether it stands above or below them.

How the values were obtained:
[1] = tested on: Jeko-1 (Mantle Cell Lymphoma); assay: Single agent cell viability assay (CellTiter-Glo), 72 h continuous exposure; type: cell-based; conditions: Homo sapiens, Jeko-1 cells
Method: (§1) The half-maximal inhibitory concentration(s) (IC50) of Formula I as a single agent against a panel of human hematological tumor cell lines was investigated. All cell lines were grown in their respective proper growth media supplemented with 5-10% FBS and housed in an atmosphere of 5% CO2 at 37° C.
(§2) Cell Viability Assay—72 Hours Continuous Exposure Time
(§3) 1. 0 hr: Cells were plated in growth media in 96-well microtiter plates at a 200 μL volume. Cells were incubated for 24 hours at 37° C. in a humidified incubator.
(§4) 2. 24 hr: The test agent's drug doses were achieved using HP D300 Digital Dispenser. Briefly, the digital dispenser added test agent in a DMSO solvent at precise volumes to media containing wells. Control wells received equivolumes of DMSO that test agents wells received. Following drugging, cells were exposed at the concentrations and dilutions described in Table 20 for 72 hours at 37° C. in a humidified incubator.
(§5) 3. 72 hr: Following 72 hour exposure, 100 μl of a 1:1 mixture of sterile water and CellTiter-Glo® Reagent was added to each well. The plates are incubated for 60 minutes at room temperature. After incubation, luminescence was recorded using a luminometer. The results are shown below in Table 21 and in FIGS. 15A, 15B, 15C and 15D.
(§6) Data is expressed as the percent cell growth of the untreated (vehicle) control calculated from the luminescence signals. The surviving fraction of cells was determined by dividing the mean luminescence values of the test agents by the mean luminescence values of untreated control. The inhibitory concentration value for the test agent(s) and control was estimated using Prism 6 software (GraphPad Software, Inc.) by curve-fitting the data using the non-linear regression analysis.

U266 (Myeloma) = assay: as above; type: cell-based; conditions: Homo sapiens, U-266, U266 cells
Method: as §1, §2, §3, §4, §5, §6

BC-1 (B-Cell Lymphoma) = assay: as above; type: cell-based; conditions: Homo sapiens, BC1, BC-1 cells
Method: as §1, §2, §3, §4, §5, §6

[2] = tested on: SU-DHL-10 (Diffuse Large B-Cell Lymphoma); assay: as above; type: cell-based; conditions: Homo sapiens, SU-DHL10, SU-DHL-10 cells
Method: as §1, §2, §3, §4, §5, §6

[3] = Storage stability, 25° C., 60% RH; type: physicochemical; conditions: for Appearance / Impurity Compound 2 / Impurity Compound 4 / Impurity Compound 5 / Largest individual unknown impurity / Total Impurities / Water Content: 25° C., 60% RH
Method: (§7) As shown below, the compounds can remain >99% pure after being held at 25° C. and 60% relative humidity for six months. The compounds can remain >95% pure after being held at 40° C. and 75% relative humidity for six months.

[4] = Storage stability, 40° C., 75% RH; type: physicochemical; conditions: for Appearance / Impurity Compound 2 / Impurity Compound 4 / Impurity Compound 5 / Largest individual unknown impurity / Total Impurities / Water Content: 40° C., 75% RH
Method: as §7

[5] = Stability of salt forms versus free base (statement in words); conditions: comparison of free base, hemi-tartrate and benzenesulfonic acid salt

- IC50 [1]: 0.4 µM
- IC50 (U266 (Myeloma)): 0.0024 µM
SMILES: CC(C)C[C@H](NC(=O)[C@H](Cc1ccccc1)NC(=O)c1cnccn1)B(O)O [Bortezomib, reference compound]

- IC50 (BC-1 (B-Cell Lymphoma)): 20.4 µM
- IC50 [1]: 30.7 µM
- IC50 [2]: 6.2 µM
- IC50 (U266 (Myeloma)): 54.6 µM
SMILES: COC1C(OC(=O)N[C@H]2CC[C@H](N)CC2)CC[C@]2(CO2)C1C1(C)O[C@@H]1CC=C(C)C (stereo partly drawn) [Formula I, (1R,4r)-4-(((((3R,4S,5S,6R)-5-methoxy-4-((2R,3R)-2-methyl-3-(3-methylbut-2-en-1-yl)oxiran-2-yl)-1-oxaspiro[2.5]octan-6-yl)oxy)carbonyl)amino)cyclohexan-1-aminium benzenesulfonate]

- IC50 (BC-1 (B-Cell Lymphoma)): 0.02 µM
- IC50 [2]: 0.00085 µM
SMILES: COc1cccc2c1C(=O)c1c(O)c3c(c(O)c1C2=O)C[C@@](O)(C(=O)CO)C[C@@H]3O[C@H]1C[C@H](N)[C@H](O)[C@H](C)O1 [Adriamycin, reference compound]

- Appearance ([3]; 0 Months): White powder,
- Impurity Compound 2 ([3]; 0 Months): <0.1%
- Impurity Compound 4 ([3]; 0 Months): <0.1%
- Impurity Compound 5 ([3]; 0 Months): 0.1%
- Largest individual unknown impurity ([3]; 0 Months): <0.1%
- Total Impurities ([3]; 0 Months): 0.1%
- Water Content ([3]; 0 Months): 0.41%
- Appearance ([3]; 1 Month): White powder,
- Impurity Compound 2 ([3]; 1 Month): 0.3%
- Impurity Compound 5 ([3]; 1 Month): 0.1%
- Largest individual unknown impurity ([3]; 1 Month): <0.1%
- Total Impurities ([3]; 1 Month): 0.5%
- Water Content ([3]; 1 Month): 0.60%
- Appearance ([3]; 2 Months): White powder,
- Impurity Compound 2 ([3]; 2 Months): 0.4%
- Impurity Compound 4 ([3]; 2 Months): 0.1%
- Impurity Compound 5 ([3]; 2 Months): 0.1%
- Largest individual unknown impurity ([3]; 2 Months): <0.1%
- Total Impurities ([3]; 2 Months): 0.5%
- Water Content ([3]; 2 Months): 0.57%
- Appearance ([3]; 3 Months): White powder,
- Impurity Compound 2 ([3]; 3 Months): 0.5%
- Impurity Compound 4 ([3]; 3 Months): 0.1%
- Impurity Compound 5 ([3]; 3 Months): 0.1%
- Largest individual unknown impurity ([3]; 3 Months): <0.1%
- Total Impurities ([3]; 3 Months): 0.7%
- Water Content ([3]; 3 Months): 1.73%
- Appearance ([3]; 6 months): White powder,
- Impurity Compound 2 ([3]; 6 months): 0.6%
- Impurity Compound 4 ([3]; 6 months): 0.1%
- Impurity Compound 5 ([3]; 6 months): 0.1%
- Largest individual unknown impurity ([3]; 6 months): <0.1%
- Total Impurities ([3]; 6 months): 0.9%
- Water Content ([3]; 6 months): 1.58%
- purity remaining after storage ([3]; held at 25° C. and 60% relative humidity for six months): > 99%
- Appearance ([4]; 0 Months): White powder,
- Impurity Compound 2 ([4]; 0 Months): <0.1%
- Impurity Compound 4 ([4]; 0 Months): <0.1%
- Impurity Compound 5 ([4]; 0 Months): 0.1%
- Largest individual unknown impurity ([4]; 0 Months): <0.1%
- Total Impurities ([4]; 0 Months): 0.1%
- Water Content ([4]; 0 Months): 0.41%
- Appearance ([4]; 1 Month): White powder,
- Impurity Compound 2 ([4]; 1 Month): 1.0%
- Impurity Compound 5 ([4]; 1 Month): 0.1%
- Largest individual unknown impurity ([4]; 1 Month): 0.2%
- Total Impurities ([4]; 1 Month): 1.5%
- Water Content ([4]; 1 Month): 1.54%
- Appearance ([4]; 2 Months): White powder,
- Impurity Compound 2 ([4]; 2 Months): 1.4%
- Impurity Compound 4 ([4]; 2 Months): 0.3%
- Impurity Compound 5 ([4]; 2 Months): 0.1%
- Largest individual unknown impurity ([4]; 2 Months): 0.3%
- Total Impurities ([4]; 2 Months): 2.4%
- Water Content ([4]; 2 Months): 1.19%
- Appearance ([4]; 3 Months): White powder,
- Impurity Compound 2 ([4]; 3 Months): 1.6%
- Impurity Compound 4 ([4]; 3 Months): 0.5%
- Impurity Compound 5 ([4]; 3 Months): 0.2%
- Largest individual unknown impurity ([4]; 3 Months): 0.4%
- Total Impurities ([4]; 3 Months): 3.1%
- Water Content ([4]; 3 Months): 2.57%
- Appearance ([4]; 6 months): White powder,
- Impurity Compound 2 ([4]; 6 months): 1.5%
- Impurity Compound 4 ([4]; 6 months): 1.4%
- Impurity Compound 5 ([4]; 6 months): 0.5%
- Largest individual unknown impurity ([4]; 6 months): 0.3%
- Total Impurities ([4]; 6 months): 4.2%
- Water Content ([4]; 6 months): 3.19%
- purity remaining after storage ([4]; held at 40° C. and 75% relative humidity for six months): > 95%
SMILES: CO[C@@H]1[C@H](OC(=O)N[C@H]2CC[C@H](N)CC2)CC[C@]2(CO2)[C@H]1[C@@]1(C)O[C@@H]1CC=C(C)C.O=S(=O)(O)c1ccccc1 [Form II of Formula I, fumagill-6-yl N-(trans-4-aminocyclohexyl)carbamate benzenesulfonic acid salt]

- stability (in words) [5]: inherently unstable
SMILES: COC1C(OC(=O)N[C@H]2CC[C@H](N)CC2)CCC2(CO2)C1C1(C)OC1CC=C(C)C (stereo partly drawn) [free base form of Formula I, fumagill-6-yl N-(trans-4-aminocyclohexyl)carbamate]
